Columns and labels:
metastatic breast cancer = conditions: with veliparib 200 mg BID in 21-day cycles; cited from earlier work
[1] = cyclophosphamide iv at 450 mg/m^2 and 750 mg/m^2
[2] = system: MX-1 BRCA1 deficient breast cancer model; conditions: in vivo; cited from earlier work
[3] = Drug-related adverse events graded by NCI CTCAE version 4.0; format: in vivo, human; conditions: overall, 80 patients enrolled; given with veliparib

O=P1(N(CCCl)CCCl)NCCCO1 (stereo not shown) [cyclophosphamide]
Recommended phase II dose of cyclophosphamide (metastatic breast cancer): 125 mg po daily
Effect of oral veliparib on cyclophosphamide PK [1]: not influenced by veliparib
Tumor effect of single agent [2]: only delayed tumor growth slightly
Patients with a dose reduction of cyclophosphamide [3]: 3 patients

— PMC8934569 (Cancer chemotherapy and pharmacology, 2021)
